According to patent US10363231B2, “Compounds and methods of treating ocular disorders” (CASE WESTERN RESERVE UNIVERSITY, priority 2014, dated 2019):

Legend:
LRAT = molecular target: T1, LRAT (Bos taurus, UniProt Q9BGL2); assay: LRAT activity assay with bovine RPE microsomes (esterification of the corresponding primary alcohols); type: biochemical; conditions: percentage of the corresponding primary alcohol esterified by LRAT in 1 h at 37° C; 10 μM; RPE microsomes
T1 construct: incubated with RPF microsomes that served as a source of LRAT enzymatic activity; from tissue; host or cells: bovine retinal pigment epithelium (RPE) microsomes
T1 sequence (Q9BGL2 1-230): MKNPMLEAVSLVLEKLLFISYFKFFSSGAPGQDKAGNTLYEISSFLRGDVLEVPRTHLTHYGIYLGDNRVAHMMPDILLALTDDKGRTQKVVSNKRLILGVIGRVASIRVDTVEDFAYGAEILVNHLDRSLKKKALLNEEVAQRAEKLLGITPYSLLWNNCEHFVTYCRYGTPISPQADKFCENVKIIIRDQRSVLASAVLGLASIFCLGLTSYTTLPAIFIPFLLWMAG
Procedure: (§1) Bovine RPE microsomes were isolated from RPE homogenates by differential centrifugation as previously described. The resulting microsomal precipitate was resuspended in 10 mM Bis-Tris propane/HCl buffer, pH 7.4, to achieve a total protein concentration of […]. Then the mixture was placed in a quartz cuvette and irradiated for 6 min at 4° C. with a ChromatoUVE transilluminator (model TM-15; UVP) to eliminate residual retinoids. After irradiation, DTT was added to the RPE microsomal mixture to achieve a final concentration of 5 mM.
Two μl of a synthesized primary alcohol or amine dissolved in DMF (final concentration 10 μM) and 2 μl of 1,2-diheptanoyl-sn-glicerol-3-phosphocholine (water, final concentration 1 mM) were added to 200 μl of 10 mM Bis-Tris propane/HCl buffer, pH 7.4, containing 150 μg of RPE microsomes and 1% (v/w) BSA. The resulting mixture was incubated at 37° C. for 1 h. The reaction was quenched by adding 300 μl of methanol. Most reaction products were extracted with 300 μl of hexanes, except for products from the QEA-C-006 and QEA-G groups which were extracted by adding 300 μl of ethyl acetate and 300 μl of water.
Reaction products were separated and quantified by normal phase HPLC (Agilent Sil 5 μm, 4.6 mm×250 mm) in stepwise gradient of ethyl acetate in hexanes (0-15 min, 10%; 20-30 min, 30%) at a flow rate of 1.4 ml·min^−1.
The properties of retinoid derivatives were examined by two standard enzymatic tests, the […] and retinoid isomerization assays. To identify substrates of LRAT, aldehydes were reduced by sodium borohydrate to their corresponding primary alcohols that then were directly used in the esterification assay (FIG. 2B).
The alcohols were incubated with RPF microsomes that served as a source of LRAT enzymatic activity. Products of the enzymatic reaction as well as the remaining substrates were extracted with organic solvents and analyzed by HPLC. The ratio between a substrate and its esterified form was used to measure enzymatic activity efficiency, based on equivalent UV absorption of the substrate and product at their specific UV maxim wavelengths. Compounds classified as ‘good’ LRAT substrates converted at least 50% of their available alcohol substrates into corresponding esters under these experimental conditions, whereas marginal LRAT substrates were converted at less than 5%. Alcohols with a 5-50% conversion ratio were classified as weak substrates. Among 35 tested compounds, 23 were categorized as good and 9 as weak substrates; 3 compounds were not esterified by LRAT (Table 1 and FIG. 2C). […] Moreover, breaking double bond conjugation along the polyene chain or deletion of a C9 and/or a C13 methyl group also was allowed.

RPE65 = molecular target: T2, RPE65 (Bos taurus, UniProt Q28175); assay: Retinoid isomerase activity assay (11-cis-retinol production in RPE microsomes); type: biochemical, Bovine; conditions: for IC50: primary amine, decline in 11-cis-retinol production in RPE microsomes, read-out: Inhibition of RPE65
T2 construct: from tissue; host or cells: bovine retinal pigment epithelium (RPE) microsomes
Procedure: as §1
[…] The resulting mixture was pre incubated at room temperature for 5 min. Then 1 μl of all-trans-retinol (in DMF, final concentration 20 μM) was added. The resulting mixture was incubated at 37° C. for 15 min to 2 h. The reaction was quenched by adding 300 μl of methanol, and products were extracted with 300 μl of hexanes. Production of 11-cis-retinol was quantified by normal phase HPLC with 10% (v/v) ethyl acetate in hexanes as the eluent at a flow rate of 1.4 ml·min^−1. Retinoids were detected by monitoring their absorbance at 325 nm and quantified based on a standard curve representing the relationship between the amount of 11-cis-retinol and the area under the corresponding chromatographic peak.
Primary amines of compounds derived from the aldehydes were subsequently tested for their ability to inhibit the RPE65-dependent retinoid isomerization reaction in dose- and time dependent reactions as exemplified by QEB-B-001 (FIG. 3B). Amines were incubated with RPE microsomes in the presence of all-trans-retinol and the 11-cis-retinoid binding protein, CRALBP.
Progress of the enzymatic reaction was monitored by HPLC separation of retinoids and quantification of 11-cis-retinol with a decrease of 11-cis-retinol production reflecting inhibition of RPE65 by a tested amine. […] This moderate inhibition could be enhanced by shortening the polyene chain length (TEA amines) or diminished by introducing an extra positive charge into the tested compounds (QEA-G amines).

[1] = Analysis of retinoid composition in mouse tissues: amide forms in liver by HPLC; type: in vivo, mice; conditions: oral gavage; for Protection by amide in liver: 4-week-old Abca4−/−Rdh8−/− mice, dark 24 h, liver extracts by HPLC; for amidation in vivo (accumulation of amide forms in mouse liver): liver HPLC
Procedure: (§2) Abca4^−/−Rdh8^−/− double knockout mice were generated as previously described. Mice were housed in the animal facility at the School of Medicine, Case Western Reserve University, where they were maintained under either complete darkness or in a 12-h light (˜300 lux) and 12-h dark cycle. All tested primary amines were suspended in 100 μl of soybean oil with less than 10% (v/v) DMSO and were administered by oral gavage with a 22-gauge feeding needle. Experimental manipulations in the dark were done under dim red light transmitted through a Kodak No. 1 safelight filter (transmittance >560 nm). All animal procedures and experiments were approved by the Case Western Reserve University Animal Care Committees and conformed to recommendations of the American Veterinary Medical Association Panel on Euthanasia and the Association of Research for Vision and Ophthalmology.
Two mg of primary amines were administered by oral gavage to 4-week-old Abca4^−/−Rdh8^−/− mice, which then were kept in the dark for 24 h. Then mice were euthanized, and their livers were homogenized in 1 ml of 10 mM sodium phosphate buffer, pH 7.4, containing 50% methanol (v/v). The resulting mixture was extracted with 4 ml of hexanes. Extracts were dried in vacuo, and reconstituted in 300 μl of hexanes. 100 μl of this solution was analyzed by HPLC as described above for the LRAT activity assay.
(§3) For practical reasons, only eight of these leading compounds (QEA-B-001-NH2, B-002-NH2, C-001-NH2, C-003-NH2, C006-NH2, E-002-NH2, TEA-B-002-NH2, and C00-2-NH2) along with retinylamine as a control were selected for further testing in Abca4^−/−Rdh8^−/− mice, an animal model for light-induced retinal degeneration (Table 2). Additionally, two novel amines with moderate inhibition of RPE65 (QEA-A-006-NH2 and QEA-B-003-NI 12) and one with strong inhibition (QEA-A-005-NH2) were added to the first test group for comparison. Mice were gavaged with 1 mg of a test compound and then kept in the dark for 24 h prior to being exposed to bright light (˜10,000 lux) for 1 h. Retinal damage was assessed with OCT that measured the thickness of the outer nuclear layer and by quantification of tissue 11-cis retinal levels. An example is shown for imaging results in FIG. 4A and for 11-cis-retinal quantification in FIG. 4B. Additionally, extracts of livers obtained from treated mice were analyzed by HPLC to estimate the amounts of corresponding amides (FIG. 4C).

Abca4^−/−Rdh8^−/− mice = assay: Toxicity in treated Abca4−/−Rdh8−/− mice (Table 2); type: in vivo; conditions: 4-week-old Abca4−/−Rdh8−/− mice, oral gavage
Procedure: as §2, §3

T2 sequence (Q28175 whole entry): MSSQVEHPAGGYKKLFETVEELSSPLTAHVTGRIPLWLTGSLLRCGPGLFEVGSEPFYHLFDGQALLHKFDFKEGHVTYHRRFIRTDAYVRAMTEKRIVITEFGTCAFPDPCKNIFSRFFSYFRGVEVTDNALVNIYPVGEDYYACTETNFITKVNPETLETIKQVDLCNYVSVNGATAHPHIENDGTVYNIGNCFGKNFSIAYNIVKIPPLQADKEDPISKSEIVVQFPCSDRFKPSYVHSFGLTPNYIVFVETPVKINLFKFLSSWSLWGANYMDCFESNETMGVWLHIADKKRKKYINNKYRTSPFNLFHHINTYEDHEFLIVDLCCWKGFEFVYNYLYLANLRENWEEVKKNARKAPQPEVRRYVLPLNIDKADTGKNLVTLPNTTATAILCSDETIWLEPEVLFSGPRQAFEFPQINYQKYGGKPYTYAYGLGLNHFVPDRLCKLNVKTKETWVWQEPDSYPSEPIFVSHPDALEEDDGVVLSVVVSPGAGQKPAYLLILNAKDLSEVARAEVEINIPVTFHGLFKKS

LRAT Substrate (LRAT) | IC50 (RPE65) | SMILES | Protection by amide in liver [1] | amidation in vivo (accumulation of amide forms in mouse liver) [1] | Toxicity (Abca4^−/−Rdh8^−/− mice) | inhibition of RPE65 (RPE65)
100% | < 10 µM | CC1=C(/C=C/C(C)=C/C=C/C(C)=C/C=C/CN)C(C)(C)CCC1 [PEA-A-001-NH2] |  |  |  | 
100% | < 10 µM | CC1=C(/C=C/C(C)=C/C=C/C(C)=C/CN)C(C)(C)CCC1O (stereo not shown) [QEA-A-002-NH2] |  |  |  | 
0% |  | CC1=C(/C=C/C(=C/C=C/C(=C/CN)C(C)(C)C)C(C)(C)C)C(C)(C)CCC1 [QEA-B-004-NH2] |  |  |  | 
0% |  | CC(C)(C)C(=C\CN)/C=C/C=C(/C=C/C1=CCCCC1)C(C)(C)C [QEA-B-005-NH2] |  |  |  | 
15% | > 200 µM | CC(/C=C/C=C(/C=C/c1ccc2c(c1)CCCC2)C(C)(C)C)=C\CN [QEA-C-002-NH2] |  |  |  | 
100% | > 200 µM | CC(/C=C/C=C(/C=C/C1=CCCCC1)c1ccccc1)=C\CN [QEA-E-001-NH2] |  |  |  | 
100% | > 200 µM | CC1=C(/C=C/C(=C/C=C/CN)C(C)(C)C)C(C)(C)CCC1 [TEA-B-001-NH2] |  |  |  | 
20% | > 200 µM | CC1=C(/C=C/C(=C/C=C/CN)C(C)(C)C)CCCC1 [TEA-B-003-NH2] |  |  |  | 
30% | > 200 µM | NC/C=C/C=C(/C=C/C1=CCCCC1)c1ccccc1 [TEA-B-004-NH2] |  |  |  | 
0% |  | CC(C)(C)C(=C\C=C\CN)/C=C/c1ccc2c(c1)CCCC2 [TEA-C-001-NH2] |  |  |  | 

The next lines start with the molecule.

SMILES | LRAT Substrate (LRAT) | IC50 (RPE65) | Protection by amide in liver [1] | amidation in vivo (accumulation of amide forms in mouse liver) [1] | Toxicity (Abca4^−/−Rdh8^−/− mice) | inhibition of RPE65 (RPE65)
CC1=C(/C=C/C(C)=C/C=C/C(C)=C/C=C/CN)C(C)(C)CCC1O (stereo not shown) [PEA-A-002-NH2] | 90% | < 10 µM |  |  |  | 
CC1=C(/C=C/C(C)=C/C=C/C(C)=C/C=C/CN)C(C)(C)CC(O)C1 (stereo not shown) [PEA-A-003-NH2] | 90% | < 10 µM |  |  |  | 
CC1=C(/C=C/C(C)=C/C=C/C(C)=C/CN)C(C)(C)CC(O)C1 (stereo not shown) [QEA-A-003-NH2] | 100% | < 10 µM |  |  |  | 
CC1=C(/C=C/C(C)=C/C=C/C=C/CN)C(C)(C)CCC1 [QEA-A-004-NH2] | 100% | < 10 µM |  |  |  | 
CC(/C=C/C1=CCCCC1)=C\C=C\C(C)=C\CN [QEA-A-006-NH2] | 100% | 10 to 100 µM | None | not efficiently amidated | None | 
CC1=C(/C=C/C(=C/C=C/C(C)=C/CN)C(C)(C)C)CCCC1 [QEA-B-002-NH2] | 30% | > 200 µM | None | not efficiently amidated | None | did not inhibit
CC1=C(/C=C/C(=C/C=C/C(C)=C/CN)C(C)(C)C)C(C)(C)CCC1 [QEA-B-003-NH2] | 100% | 10 to 100 µM | Weak | not efficiently amidated | None | 
CC(/C=C/C=C(/C=C/c1ccccc1)C(C)(C)C)=C\CN [QEA-C-001-NH2] | 50% | > 200 µM | Strong | efficiently converted into amides | Yes | did not inhibit
CC(/C=C/C=C(/C=C/c1ccc(C(F)(F)F)cc1)c1ccccc1)=C\CN [QEA-C-003-NH2] | 100% | > 200 µM | None | not efficiently amidated | Yes | did not inhibit
CC(/C=C/C=C(/C=C/c1ccc(Cl)cc1)c1ccccc1)=C\CN [QEA-C-004-NH2] | 100% | > 200 µM |  |  |  | 
COc1ccc(C(=C\C=C\C(C)=C\CN)/C=C/c2ccc([N+](=O)[O-])cc2)cc1 [QEA-C-005-NH2] | 100% | > 200 µM |  |  |  | 
CC(/C=C/C=C1/C=C(C2=CCCCC2)CCC1)=C\CN [QEA-D-001-NH2] | 100% | > 200 µM |  |  |  | 
CC(/C=C/C=C1/C=C(C2=COCCC2)CCC1)=C\CN [QEA-D-002-NH2] | 100% | > 200 µM |  |  |  | 
CC(/C=C/C=C1/C=C(c2cccnc2)CCC1)=C\CN [QEA-G-001-NH2] | 100% | 10 to 100 µM |  |  |  | 
COc1ccc(C(=C\C=C\C(C)=C\CN)/C=C/c2cccnc2)cc1 [QEA-G-002-NH2] | 100% | 10 to 100 µM |  |  |  | 
CC1=C(/C=C/C(C)=C/C=C/CN)C(C)(C)CCC1 [TEA-A-001-NH2] | 100% | < 10 µM |  |  |  | 
CC1=C(/C=C/C(C)=C/C=C/CN)C(C)(C)CC=C1 [TEA-A-002-NH2] | 100% | < 10 µM |  |  |  | 
CC1=C(/C=C/C(C)=C/C=C/CN)C(C)(C)CC(O)C1 (stereo not shown) [TEA-A-003-NH2] | 90% | < 10 µM |  |  |  | 
CC1=C(/C=C/C(C)=C/C=C/CN)C(C)(C)CCC1O (stereo not shown) [TEA-A-004-NH2] | 90% | < 10 µM |  |  |  | 
